Measurements: patent US9598440B2, “Inhibitors of IRAK4 activity” (MERCK SHARP & DOHME CORP., priority 2012, dated 2017)

Target: IRAK4 (Homo sapiens (Human), UniProt Q9NWZ3)
Test: Determination of IRAK4 kinase activity (IMAP fluorescence polarization, phosphorylation of fluorescent peptide substrate)
Assay type: biochemical
Conditions: 0.5 nM GST tagged IRAK4, 100 nM peptide substrate RP7030, 100 μM ATP, 30 minutes at 25° C.
Method in brief: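 GST-tagged IRAK4 (0.5 nM) phosphorylated 100 nM fluorescent peptide substrate with 100 µM ATP in Tris-HCl pH 7.2, 1 mM MgCl2, 1 mM DTT, 0.01% Tween 20 for 30 min at 25 °C. Phosphorylation read by IMAP nanoparticle binding as fluorescence polarization increase.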

IRAK4, sequence (Q9NWZ3 whole entry): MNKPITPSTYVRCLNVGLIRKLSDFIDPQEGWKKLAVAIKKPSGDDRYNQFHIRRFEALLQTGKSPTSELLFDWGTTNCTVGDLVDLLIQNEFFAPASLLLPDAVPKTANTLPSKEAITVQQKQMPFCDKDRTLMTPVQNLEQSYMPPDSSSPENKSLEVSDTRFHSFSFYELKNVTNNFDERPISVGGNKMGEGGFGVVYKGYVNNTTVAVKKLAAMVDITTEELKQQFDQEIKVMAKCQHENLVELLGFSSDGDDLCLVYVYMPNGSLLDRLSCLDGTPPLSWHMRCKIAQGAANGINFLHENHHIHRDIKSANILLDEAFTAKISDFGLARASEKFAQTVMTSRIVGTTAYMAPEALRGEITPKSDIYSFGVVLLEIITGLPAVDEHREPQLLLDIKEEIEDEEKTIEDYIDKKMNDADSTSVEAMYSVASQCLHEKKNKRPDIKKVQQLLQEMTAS

| Structure (SMILES) | IC50 [nM] |
| --- | --- |
| Cc1cc(Nc2ncc(-c3cncs3)c(N[C@@H]3C[C@H](CO)[C@@H](O)[C@H]3O)n2)cc(C)n1 [Example 40, (1R,2S,3R,5R)-3-((2-((2,6-dimethylpyridin-4-yl)amino)-5-(thiazol-5-yl)pyrimidin-4-yl)amino)-5-(hydroxymethyl)cyclopentane-1,2-diol] | 64 |
| Cc1cc(Nc2ncc(-c3cscn3)c(N[C@@H]3C[C@H](CO)[C@@H](O)[C@H]3O)n2)cc(C)n1 [Example 41, (1R,2S,3R,5R)-3-((2-((2,6-dimethylpyridin-4-yl)amino)-5-(thiazol-4-yl)pyrimidin-4-yl)amino)-5-(hydroxymethyl)cyclopentane-1,2-diol] | 7.9 |
| OC[C@H]1C[C@@H](Nc2nc(Nc3ccc(OC(F)(F)F)cc3)ncc2-c2nc3ccccc3s2)[C@H](O)[C@@H]1O [Example 42, (1R,2S,3R,5R)-3-((5-(benzo[d]thiazol-2-yl)-2-((4-(trifluoromethoxy)phenyl)amino)pyrimidin-4-yl)amino)-5-(hydroxymethyl)cyclopentane-1,2-diol] | 552 |
| COc1ccc(Nc2ncc(-c3nc4ccccc4s3)c(N[C@@H]3C[C@H](CO)[C@@H](O)[C@H]3O)n2)cn1 [Example 43, (1R,2S,3R,5R)-3-((5-(benzo[d]thiazol-2-yl)-2-((6-methoxypyridin-3-yl)amino)pyrimidin-4-yl)amino)-5-(hydroxymethyl)cyclopentane-1,2-diol] | 8.2 |
| CN1CCN(c2ccc(Nc3ncc(-c4nc5ccccc5s4)c(N[C@@H]4C[C@H](CO)[C@@H](O)[C@H]4O)n3)cc2)CC1 [Example 44, (1R,2S,3R,5R)-3-((5-(benzo[d]thiazol-2-yl)-2-((4-(4-methylpiperazin-1-yl)phenyl)amino)pyrimidin-4-yl)amino)-5-(hydroxymethyl)cyclopentane-1,2-diol] | 3 |
| CN1CCN(c2cccc(Nc3ncc(-c4nc5ccccc5s4)c(N[C@@H]4C[C@H](CO)[C@@H](O)[C@H]4O)n3)c2)CC1 [Example 45, (1R,2S,3R,5R)-3-((5-(benzo[d]thiazol-2-yl)-2-((3-(4-methylpiperazin-1-yl)phenyl)amino)pyrimidin-4-yl)amino)-5-(hydroxymethyl)cyclopentane-1,2-diol] | 2.6 |
| Nc1ncc(-c2cc3ccccc3s2)c(N[C@@H]2C[C@H](CO)[C@@H](O)[C@H]2O)n1 [Example 46, (1R,2S,3R,5R)-3-((2-amino-5-(benzo[b]thiophen-2-yl)pyrimidin-4-yl)amino)-5-(hydroxymethyl)cyclopentane-1,2-diol] | 1610 |
| OC[C@H]1C[C@@H](Nc2nc(Nc3ccc4[nH]ncc4c3)ncc2-c2nc3ccccc3s2)[C@H](O)[C@@H]1O [Example 50, (1R,2S,3R,5R)-3-((2-((1H-indazol-5-yl)amino)-5-(benzo[d]thiazol-2-yl)pyrimidin-4-yl)amino)-5-(hydroxymethyl)cyclopentane-1,2-diol] | 6.5 |
| OC[C@H]1C[C@@H](Nc2nc(NC3CCNCC3)ncc2-c2nc3ccccc3s2)[C@H](O)[C@@H]1O [Example 52, (1R,2S,3R,5R)-3-((5-(benzo[d]thiazol-2-yl)-2-(piperidin-4-ylamino)pyrimidin-4-yl)amino)-5-(hydroxymethyl)cyclopentane-1,2-diol] | 687 |
| CN1CCC(Nc2ncc(-c3nc4ccccc4s3)c(N[C@@H]3C[C@H](CO)[C@@H](O)[C@H]3O)n2)CC1 [Example 53, (1R,2S,3R,5R)-3-((5-(benzo[d]thiazol-2-yl)-2-((1-methylpiperidin-4-yl)amino)pyrimidin-4-yl)amino)-5-(hydroxymethyl)cyclopentane-1,2-diol] | 2650 |
| OC[C@H]1C[C@@H](Nc2nc(NC3CNC3)ncc2-c2nc3ccccc3s2)[C@H](O)[C@@H]1O [Example 54, (1R,2S,3R,5R)-3-((2-(azetidin-3-ylamino)-5-(benzo[d]thiazol-2-yl)pyrimidin-4-yl)amino)-5-(hydroxymethyl)cyclopentane-1,2-diol] | 736 |
| OC[C@H]1C[C@@H](Nc2nc(NC3CCC3)ncc2-c2ccc3ccccc3n2)[C@H](O)[C@@H]1O [Example 56, 2-(cyclobutylamino)-6-(((1R,2S,3R,4R)-2,3-dihydroxy-4-(hydroxymethyl)cyclopentyl)amino)-5-(quinolin-2-yl)pyrimidine] | 483 |
| OC[C@H]1C[C@@H](Nc2nc(NC3COC3)ncc2-c2ccc3ccccc3n2)[C@H](O)[C@@H]1O [Example 57, 6-(((1R,2S,3R,4R)-2,3-dihydroxy-4-(hydroxymethyl)cyclopentyl)amino)-2-(oxetan-3-ylamino)-5-(quinolin-2-yl)pyrimidine] | 10600 |
| COc1cc(Nc2ncc(-c3ccc4ccccc4n3)c(N[C@@H]3C[C@H](CO)[C@@H](O)[C@H]3O)n2)ccn1 [Example 58, 6-(((1R,2S,3R,4R)-2,3-dihydroxy-4-(hydroxymethyl)cyclopentyl)amino)-2-((2-methoxypyridin-4-yl)amino)-5-(quinolin-2-yl)pyrimidine] | 8 |
| Cc1cc(Nc2ncc(-c3ccc4ccccc4n3)c(N[C@@H]3C[C@H](CO)[C@@H](O)[C@H]3O)n2)cc(C)n1 [Example 59, 6-(((1R,2S,3R,4R)-2,3-dihydroxy-4-(hydroxymethyl)cyclopentyl)amino)-2-((2,6-dimethylpyridin-4-yl)amino)-5-(quinolin-2-yl)pyrimidine] | 1 |
| OC[C@H]1C[C@@H](Nc2nc(NC3CC3)ncc2-c2ccc3ccccc3n2)[C@H](O)[C@@H]1O [Example 60, 2-(cyclopropylamino)-6-(((1R,2S,3R,4R)-2,3-dihydroxy-4-(hydroxymethyl)cyclopentyl)amino)-5-(quinolin-2-yl)pyrimidine] | 1470 |
| CC(C)Oc1cc(Nc2ncc(-c3ccc4ccccc4n3)c(N[C@@H]3C[C@H](CO)[C@@H](O)[C@H]3O)n2)ccn1 [Example 61, 6-(((1R,2S,3R,4R)-2,3-dihydroxy-4-(hydroxymethyl)cyclopentyl)amino)-2-((2-isopropoxypyridin-4-yl)amino)-5-(quinolin-2-yl)pyrimidine] | 27 |
| CC(C)n1ccc(Nc2ncc(-c3ccc4ccccc4n3)c(N[C@@H]3C[C@H](CO)[C@@H](O)[C@H]3O)n2)cc1=O [Example 62, 6-(((1R,2S,3R,4R)-2,3-dihydroxy-4-(hydroxymethyl)cyclopentyl)amino)-2-((1-isopropyl-2-oxo-1,2-dihydropyridin-4-yl)amino)-5-(quinolin-2-yl)pyrimidine] | 154 |
| OC[C@H]1C[C@@H](Nc2nc(Nc3ccnc(OC4CC4)c3)ncc2-c2ccc3ccccc3n2)[C@H](O)[C@@H]1O [Example 63, 2-((2-cyclopropoxypyridin-4-yl)amino)-6-(((1R,2S,3R,4R)-2,3-dihydroxy-4-(hydroxymethyl)cyclopentyl)amino)-5-(quinolin-2-yl)pyrimidine] | 43 |
| Nc1ncc(-c2nccs2)c(N[C@@H]2C[C@H](CO)[C@@H](O)[C@H]2O)n1 [Example 64, 2-amino-6-(((1R,2S,3R,4R)-2,3-dihydroxy-4-(hydroxymethyl)cyclopentyl)amino)-5-(thiazol-2-yl)pyrimidine] | 241 |
| OC[C@H]1C[C@@H](Nc2nc(Nc3ccncc3)ncc2-c2nccs2)[C@H](O)[C@@H]1O [Example 65, 6-(((1R,2S,3R,4R)-2,3-dihydroxy-4-(hydroxymethyl)cyclopentyl)amino)-2-(pyridin-4-ylamino)-5-(thiazol-2-yl)pyrimidine] | 260 |
| CN(C)c1ccc(Nc2ncc(-c3nc4cnccc4s3)c(N[C@@H]3C[C@H](CO)[C@@H](O)[C@H]3O)n2)cc1 [Example 66, (1R,2S,3R,5R)-3-((2-((4-(dimethylamino)phenyl)amino)-5-(thiazolo[4,5-c]pyridin-2-yl)pyrimidin-4-yl)amino)-5-(hydroxymethyl)cyclopentane-1,2-diol] | 4 |
| Cc1cc(Nc2ncc(-c3nc4cnccc4s3)c(N[C@@H]3C[C@H](CO)[C@@H](O)[C@H]3O)n2)cc(C)n1 [Example 67, (1R,2S,3R,5R)-3-((2-((2,6-dimethylpyridin-4-yl)amino)-5-(thiazolo[4,5-c]pyridin-2-yl)pyrimidin-4-yl)amino)-5-(hydroxymethyl)cyclopentane-1,2-diol] | 0.5 |
| Cc1cc(Nc2ncc(-c3nc4ccncc4s3)c(N[C@@H]3C[C@H](CO)[C@@H](O)[C@H]3O)n2)cc(C)n1 [Example 68, (1R,2S,3R,5R)-3-((2-((2,6-dimethylpyridin-4-yl)amino)-5-(thiazolo[5,4-c]pyridin-2-yl)pyrimidin-4-yl)amino)-5-(hydroxymethyl)cyclopentane-1,2-diol] | 0.2 |
| Cc1cc(Nc2ncc(-c3nc4cnccc4s3)c(N[C@@H]3C[C@H](CO)[C@@H](O)[C@H]3O)n2)ccn1 [Example 69, (1S,2R,3R,5R)-3-(hydroxymethyl)-5-((2-((2-methylpyridin-4-yl)amino)-5-(thiazolo[4,5-c]pyridin-2-yl)pyrimidin-4-yl)amino)cyclopentane-1,2-diol] | 3 |
| COc1cc(Nc2ncc(-c3nc4cnccc4s3)c(N[C@@H]3C[C@H](CO)[C@@H](O)[C@H]3O)n2)ccn1 [Example 71, 6-(((1R,2S,3R,4R)-2,3-dihydroxy-4-(hydroxymethyl)cyclopentyl)amino)-2-((2-methoxypyridin-4-yl)amino)-5-(thiazolo[4,5-c]pyridin-2-yl)pyrimidine] | 7 |
| CN(C)c1cccc(Nc2ncc(-c3nc4cnccc4s3)c(N[C@@H]3C[C@H](CO)[C@@H](O)[C@H]3O)n2)c1 [Example 73, 6-(((1R,2S,3R,4R)-2,3-dihydroxy-4-(hydroxymethyl)cyclopentyl)amino)-2-((3-(dimethylamino)phenyl)amino)-5-(thiazolo[4,5-c]pyridin-2-yl)pyrimidine] | 12 |
| OC[C@H]1C[C@@H](Nc2nc(Nc3cncnc3)ncc2-c2nc3ccncc3s2)[C@H](O)[C@@H]1O [Example 74, 6-(((1R,2S,3R,4R)-2,3-dihydroxy-4-(hydroxymethyl)cyclopentyl)amino)-2-(pyrimidin-5-ylamino)-5-(thiazolo[5,4-c]pyridin-2-yl)pyrimidine] | 6 |
